# Laboratory results reported in patent US7495004B2, “Purine derivatives as liver X receptor agonists” (Glaxo Group Limited, priority 2002, dated 2009).
# Tests used:
# [1] = target: T1, human LXRβ ligand binding domain (Homo sapiens, UniProt P55055); assay: Assay for LXRβ activity (HTRF, SRC-1 peptide recruitment); format: biochemical; conditions: 1 μM; over a background reading of 10000 fluorescence units
# T1 construct: made in house; host or cells: E. coli BL21 (DE3), vector pRSETa
# T1 sequence (P55055 184-460 limits assumed): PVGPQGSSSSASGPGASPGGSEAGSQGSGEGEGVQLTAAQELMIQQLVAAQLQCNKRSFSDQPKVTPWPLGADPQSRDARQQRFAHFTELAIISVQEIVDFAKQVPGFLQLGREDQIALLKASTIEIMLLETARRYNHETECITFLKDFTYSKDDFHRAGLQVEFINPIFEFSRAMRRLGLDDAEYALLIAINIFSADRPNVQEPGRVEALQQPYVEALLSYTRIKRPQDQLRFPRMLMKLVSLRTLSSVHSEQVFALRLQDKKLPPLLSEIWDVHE
# T1 sequence (Q15788 676-700 partner limits assumed): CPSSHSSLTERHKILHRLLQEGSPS
# Description: A modified polyhistidine tag (MKKGHHHHHHG) (SEQ ID No. 1) was fused in frame to the human LXRβ ligand binding domain (amino acids 185-461 of Genbank accession number U07132) and subeloned into the expression vector pRSETa (Invitrogen) under the control of an IPTG inducible T7 promoter. The human LXRβ ligand binding domain was expressed in E. coli strain BL21 (DE3). Ten-liter fermentation batches were grown in Rich PO4 media with 0.1 mg/mL Ampicillin at 25° C. for 12 hours, cooled to 9° C. and held at that temperature for 36 hours to a density of OD600=14. At this cell density, 0.25 mM IPTG was added and induction proceeded for 24 hours at 9° C., to a final OD600=16. Cells were harvested by centrifugation (20 minutes, 3500 g, 4° C.), and concentrated cell slurries were stored in PBS at −80° C.
# Typically 25-50 g of cell paste is resuspended in 250-500 mL TBS, pH 8.0 (25 mM Tris, 150 mM NaCl). Cells are lysed by passing 3 times through an APV Rannie MINI-lab homogenizer, and cell debris is removed by centrifugation (30 minutes, 20,000 g, 4° C.). […] After washing to baseline absorbance with equilibration buffer, the column is washed with approximately one column volume of TBS pH […] containing 95 mM imidazole. […] After washing to baseline absorbance with the dilution buffer the protein is eluted with a gradient from 50-500 mM NaCl. […]
# [2] = target: T2, LXRα ligand binding domain (Homo sapiens, UniProt Q13133); assay: Assay for LXRα activity (HTRF, SRC-1 peptide recruitment); format: biochemical; conditions: 1 μM; over a background reading of 10000 fluorescence units
# T2 construct: His tag; made in house
# T2 sequence (Q13133 183-447): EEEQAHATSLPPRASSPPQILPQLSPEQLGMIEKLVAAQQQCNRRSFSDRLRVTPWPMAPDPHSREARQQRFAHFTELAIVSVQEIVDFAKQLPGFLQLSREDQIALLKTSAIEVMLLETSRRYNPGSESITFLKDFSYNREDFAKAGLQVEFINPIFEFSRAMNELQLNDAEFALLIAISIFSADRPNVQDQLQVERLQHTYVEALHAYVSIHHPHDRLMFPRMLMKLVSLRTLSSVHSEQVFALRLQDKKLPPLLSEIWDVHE
# T2 sequence (Q15788 676-700 partner): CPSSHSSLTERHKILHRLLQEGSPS
# Description: The assay for LXRα was run according to the procedures of Example 1, above using his-tagged LXRα ligand binding domain (amino acids 183-447 of Genbank accession number U22662, with the 14th amino acid corrected to A from R). Percentage control is relative to 24(S),25-epoxycholesterol.
# In this assay 1 μM 24(S),25-epoxycholesterol gave a reading of 20000 fluorescence units over a background reading of 10000 fluorescence units.
smiles,measurement,setting,value
"C[C@H](CC[C@@H]1OC1(C)C)[C@H]1CC[C@H]2[C@@H]3CC=C4C[C@@H](O)CC[C@]4(C)[C@H]3CC[C@]12C [24(S),25-epoxycholesterol]",reading in LXRβ assay,[1],20000 fluorescence units
same,reading in LXRα assay,[2],20000 fluorescence units
